According to patent US9695155B2, “Herbicidal substituted pyrimidinyloxy benzene compounds” (E. I. DU PONT DE NEMOURS AND COMPANY, priority 2013, dated 2017):

Legend:
Assay in all cases: Test F preemergence
Settings in all cases: 21 days, scale 0 to 100
surinam grass = assay type: in vivo, Brachiaria decumbens
From the text: (§1) Seeds of plant species selected from bermudagrass (Cynodon dactylon), surinam grass (Brachiaria decumbens), large (Lg) crabgrass (Digitaria sanguinalis), crabgrass, naked (naked crabgrass, Digitaria nuda), foxtail, green (green foxtail, Setaria viridis), johnsongrass (Sorghum halepense), kochia (Kochia scoparia), morningglory (pitted morningglory, Ipomoea lacunosa), nutsedge, purple (purple nutsedge, Cyperus rotundus), ragweed (common ragweed, Ambrosia elatior), mustard, black (black mustard, Brassica nigra), guineagrass (Panicum maximum), dallisgrass (Paspalum dilatatum), barnyardgrass (Echinochloa crus-galli), sandbur (southern sandbur, Cenchrus echinatus), sowthistle (common sowthistle, Sonchus oleraceous), Italian ryegrass (Lolium multiflorum), signalgrass (broadleaf signalgrass, Brachiaria platyphylla), dayflower (Virginia (VA) dayflower, Commelina virginica), bluegrass (annual bluegrass, Poa annua), quackgrass (Elytrigia repens), mallow (common mallow, Malva sylvestris), buckwheat, wild (wild buckwheat, Polygonum convolvulus), leafy spurge (Euphorbia esula), chickweed (common chickweed, Stellaria media), wild poinsettia (Euphorbia heterophylla), and pigweed (Amaranthus retroflexus) were planted into a blend of loam soil and sand and treated preemergence with test chemicals formulated in a non-phytotoxic solvent mixture which included a surfactant.
(§2) Treated plants and controls were maintained in a greenhouse for 21 days, after which time all species were compared to controls and visually evaluated. Plant response ratings, summarized in Table F, are based on a scale of 0 to 100 where 0 is no effect and 100 is complete control. A dash (-) response means no test result.

crabgrass, naked = assay type: in vivo, Digitaria nuda
From the text: as §1, §2

foxtail, green = assay type: in vivo, Setaria viridis
From the text: as §1, §2

[1] = tested on: morningglory (pitted morningglory); assay type: in vivo, Ipomoea lacunosa
From the text: as §1, §2

nutsedge, purple = assay type: in vivo, Cyperus rotundus
From the text: as §1, §2

Italian ryegrass = assay type: in vivo, Lolium multiflorum
From the text: as §1, §2

Compound: N#Cc1cccc(Oc2ncc(F)cn2)c1-n1cc(C(F)(F)F)cn1 [Compound 79, 3-[(5-fluoro-2-pyrimidinyl)oxy]-2-[4-(trifluoromethyl)-1H-pyrazol-1-yl]benzonitrile]
- Plant response rating, Surinam Grass (surinam grass; 16 g ai/ha): 75
- Plant response rating, Surinam Grass (surinam grass; 31 g ai/ha): 90
- Plant response rating, Surinam Grass (surinam grass; 62 g ai/ha): 95
- Plant response rating, Surinam Grass (surinam grass; 125 g ai/ha): 100
- Plant response rating, Surinam Grass (surinam grass; 250 g ai/ha): 100
- Plant response rating, Crabgrass, Naked (crabgrass, naked; 16 g ai/ha): 100
- Plant response rating, Crabgrass, Naked (crabgrass, naked; 31 g ai/ha): 100
- Plant response rating, Crabgrass, Naked (crabgrass, naked; 62 g ai/ha): 100
- Plant response rating, Crabgrass, Naked (crabgrass, naked; 125 g ai/ha): 100
- Plant response rating, Crabgrass, Naked (crabgrass, naked; 250 g ai/ha): 100
- Plant response rating, Foxtail, Green (foxtail, green; 16 g ai/ha): 95
- Plant response rating, Foxtail, Green (foxtail, green; 31 g ai/ha): 100
- Plant response rating, Foxtail, Green (foxtail, green; 62 g ai/ha): 100
- Plant response rating, Foxtail, Green (foxtail, green; 125 g ai/ha): 100
- Plant response rating, Foxtail, Green (foxtail, green; 250 g ai/ha): 100
- Plant response rating, Morningglory ([1]; 16 g ai/ha): 98
- Plant response rating, Morningglory ([1]; 31 g ai/ha): 100
- Plant response rating, Morningglory ([1]; 62 g ai/ha): 100
- Plant response rating, Morningglory ([1]; 125 g ai/ha): 100
- Plant response rating, Morningglory ([1]; 250 g ai/ha): 100
- Plant response rating, Nutsedge, Purple (nutsedge, purple; 16 g ai/ha): 0
- Plant response rating, Nutsedge, Purple (nutsedge, purple; 31 g ai/ha): 10
- Plant response rating, Nutsedge, Purple (nutsedge, purple; 62 g ai/ha): 70
- Plant response rating, Nutsedge, Purple (nutsedge, purple; 125 g ai/ha): 70
- Plant response rating, Nutsedge, Purple (nutsedge, purple; 250 g ai/ha): 85
- Plant response rating, Ryegrass, Italian (Italian ryegrass; 16 g ai/ha): 30
- Plant response rating, Ryegrass, Italian (Italian ryegrass; 31 g ai/ha): 75
- Plant response rating, Ryegrass, Italian (Italian ryegrass; 62 g ai/ha): 98
- Plant response rating, Ryegrass, Italian (Italian ryegrass; 125 g ai/ha): 100
- Plant response rating, Ryegrass, Italian (Italian ryegrass; 250 g ai/ha): 100

Compound: N#Cc1cccc(Oc2ncc(Cl)cn2)c1-n1cc(OC(F)F)cn1 [Compound 97]
- Plant response rating, Surinam Grass (surinam grass; 16 g ai/ha): 0
- Plant response rating, Surinam Grass (surinam grass; 31 g ai/ha): 10
- Plant response rating, Surinam Grass (surinam grass; 62 g ai/ha): 50
- Plant response rating, Surinam Grass (surinam grass; 125 g ai/ha): 90
- Plant response rating, Surinam Grass (surinam grass; 250 g ai/ha): 100
- Plant response rating, Crabgrass, Naked (crabgrass, naked; 16 g ai/ha): 100
- Plant response rating, Crabgrass, Naked (crabgrass, naked; 31 g ai/ha): 100
- Plant response rating, Crabgrass, Naked (crabgrass, naked; 62 g ai/ha): 100
- Plant response rating, Crabgrass, Naked (crabgrass, naked; 125 g ai/ha): 100
- Plant response rating, Crabgrass, Naked (crabgrass, naked; 250 g ai/ha): 100
- Plant response rating, Foxtail, Green (foxtail, green; 16 g ai/ha): 75
- Plant response rating, Foxtail, Green (foxtail, green; 31 g ai/ha): 100
- Plant response rating, Foxtail, Green (foxtail, green; 62 g ai/ha): 100
- Plant response rating, Foxtail, Green (foxtail, green; 125 g ai/ha): 100
- Plant response rating, Foxtail, Green (foxtail, green; 250 g ai/ha): 100
- Plant response rating, Morningglory ([1]; 16 g ai/ha): 10
- Plant response rating, Morningglory ([1]; 31 g ai/ha): 60
- Plant response rating, Morningglory ([1]; 62 g ai/ha): 90
- Plant response rating, Morningglory ([1]; 125 g ai/ha): 98
- Plant response rating, Morningglory ([1]; 250 g ai/ha): 100
- Plant response rating, Nutsedge, Purple (nutsedge, purple; 16 g ai/ha): 15
- Plant response rating, Nutsedge, Purple (nutsedge, purple; 31 g ai/ha): 35
- Plant response rating, Nutsedge, Purple (nutsedge, purple; 62 g ai/ha): 30
- Plant response rating, Nutsedge, Purple (nutsedge, purple; 125 g ai/ha): 75
- Plant response rating, Nutsedge, Purple (nutsedge, purple; 250 g ai/ha): 90
- Plant response rating, Ryegrass, Italian (Italian ryegrass; 16 g ai/ha): 0
- Plant response rating, Ryegrass, Italian (Italian ryegrass; 31 g ai/ha): 35
- Plant response rating, Ryegrass, Italian (Italian ryegrass; 62 g ai/ha): 70
- Plant response rating, Ryegrass, Italian (Italian ryegrass; 125 g ai/ha): 85
- Plant response rating, Ryegrass, Italian (Italian ryegrass; 250 g ai/ha): 100
